# According to US20230012368A1 (Hoffmann-La Roche Inc., priority 2018, published 2023):
# Counter-ions that a name gives are not always drawn.
# Tested on: Acinetobacter baumannii ATCC 17978
# Test: Antimicrobial susceptibility testing: 90% growth inhibitory concentration (IC90) determination
# Type: cell-based
# Details: 90% growth inhibitory concentration; Acinetobacter baumannii ATCC17978; Iso-Sensitest broth, OD 600 nm over 16h; hydrochloride; read-out: ATCC17978 IC90
# Description: Antimicrobial Susceptibility Testing:
# 90% Growth Inhibitory Concentration (IC90) Determination
# The in vitro antimicrobial activity of the compounds was determined according to the following procedure:
# The assay used a 10-points Iso-Sensitest broth medium to measure quantitatively the in vitro activity of the compounds against Acinetobacter baumannii ATCC 17978 and Acinetobacter baumannii ATCC 17961.
# Stock compounds in DMSO were serially twofold diluted (e.g. range from 50 to 0.097 μM final concentration) in 384 wells microtiter plates and inoculated with 49 μl the bacterial suspension in Iso-Sensitest medium to have a final cell concentration of ˜5×10^(5) CFU/ml in a final volume/well of 50 ul/well. Microtiter plates were incubated at 35±2° C.
# Bacterial cell growth was determined with the measurement of optical density at λ=600 nm each 20 minutes over a time course of 16h. Growth inhibition was calculated during the logarithmic growth of the bacterial cells with determination of the concentration inhibiting 50% (IC50) and 90% (IC90) of the growth.
# Table 1 provides the 90% growth inhibitory concentrations (IC90) in micromoles per liter of the compounds of present invention obtained against the strain Acinetobacter baumannii ATCC17978 and Acinetobacter baumannii ATCC17961.
row,IC90 [nM],SMILES
1,450,"CCc1cc(Nc2nccn3c(-c4ccc(OC)c(F)c4F)cnc23)ccc1C(=O)NCC(O)CN (stereo not drawn) [Example 147, N-(3-amino-2-hydroxy-propyl)-4-[[3-(2,3-difluoro-4-methoxy-phenyl)imidazo[1,2-a]pyrazin-8-yl]amino]-2-ethyl-benzamide;hydrochloride]"

# Same assay, conditions: 90% growth inhibitory concentration; Acinetobacter baumannii ATCC17978; Iso-Sensitest broth, OD 600 nm over 16h; read-out: ATCC17978 IC90
row,SMILES,IC90 [nM]
1,"COc1ccc(-c2cnc3c(Nc4ccc(C(=O)N(C)CCN5CCNCC5)c(Cl)c4)nccn23)cc1F [Example 90, 2-chloro-4-((3-(3-fluoro-4-methoxyphenyl)imidazo [1,2-a]pyrazin-8-yl)amino)-N-methyl-N-(2-(piperazin-1-yl)ethyl)benzamide hydrochloride]",230
2,"CCc1cc(Nc2nccn3c(-c4ccc(Oc5ncccn5)c(F)c4F)cnc23)ccc1C(=O)NCCNC(=O)[C@@H](N)CCNC(=N)N [Example 438, N-[2-[[(2S)-2-amino-4-guanidino-butanoyl]amino]ethyl]-4-[[3-(2,3-difluoro-4-pyrimidin-2-yloxy-phenyl)imidazo[1,2-a]pyrazin-8-yl]amino]-2-ethyl-benzamide; formic acid]",550
3,"CCc1cc(Nc2nccn3c(-c4ccc(OC(F)F)c(F)c4F)cnc23)ccc1C(=O)N[C@@H](C)CN [Example 312, N-[(2S)-1-aminopropan-2-yl]-4-[[3-[4-(difluoromethoxy)-2,3-difluorophenyl]imidazo[1,2-a]pyrazin-8-yl]amino]-2-ethylbenzamide; hydrochloride]",1200

# Same assay, conditions: Acinetobacter baumannii, ATCC17978, 16 h, 90% growth inhibitory concentration; Acinetobacter baumannii ATCC17978; Iso-Sensitest broth, OD 600 nm over 16h; read-out: ATCC17978 IC90
row,IC90 [nM],SMILES
1,5100,"COc1ccc(-c2cnc3c(Nc4ccc(C(=O)N(C)CCN)cc4)nccn23)cc1 [Example 264, N-(2-aminoethyl)-4-[[3-(4-methoxyphenyl)imidazo[1,2-a]pyrazin-8-yl]amino]-N-methylbenzamide; hydrochlo-ride]"
2,240,"COc1ccc(-c2cnc3c(Nc4ccc5c(c4)CCN(C)C5=O)nccn23)cc1F [Example 274, 6-[[3-(3-fluoro-4-methoxyphenyl)imidazo[1,2-a]pyrazin-8-yl]amino]-2-methyl-3,4-dihydroisoquinolin-1-one]"
3,62,"C#CCNC(=O)c1ccc(Nc2nccn3c(-c4ccc(OC)c(F)c4F)cnc23)cc1CC [Example 541, 4-[[3-(2,3-difluoro-4-methoxyphenyl)imidazo[1,2-a]pyrazin-8-yl]amino]-2-ethyl-N-prop-2-ynylbenzamide]"
4,54,"CCc1cc(Nc2nccn3c(-c4ccc(OC(F)F)c(F)c4F)cnc23)ccc1C(=O)NCCC(=O)N1CCNCC1 [Example 542, 4-((3-(4-(difluoromethoxy)-2,3-difluorophenyl)imidazo[1,2-a]pyrazin-8-yl)amino)-2-ethyl-N-(3-oxo-3-(piperazin-1-yl)propyl)benzamide 2,2,2-trifluoroacetate]"
5,560,"CCc1cc(Nc2nccn3c(-c4ccc(Oc5nccc(OC)n5)c(F)c4F)cnc23)ccc1C(=O)NCCN [Example 466, N-(2-aminoethyl)-4-((3-(2,3-difluoro-4-((4-methoxypyrimidin-2-yl)oxy)phenyl)imidazo[1,2-a]pyrazin-8-yl)amino)-2-ethylbenzamide]"
6,190,"COc1ccc(-c2cnc3c(Nc4ccc(C(=O)N(C)CCN5CCNCC5)c(C)c4)nccn23)c(F)c1F [Example 61, 4-((3-(2,3-difluoro-4-methoxyphenyl)imidazo [1,2-a]pyrazin-8-yl)amino)-N,2-dimethyl-N-(2-(piperazin-1-yl)ethyl)benzamide]"
7,200,"CCc1cc(Nc2nccn3c(-c4ccc(OC)c(F)c4F)cnc23)ccc1C(=O)NCCNC(=O)CC(O)CN (stereo not drawn) [Example 376, N-[2-[(4-amino-3-hydroxybutanoyl)amino]ethyl]-4-[[3-(2,3-difluoro-4-methoxyphenyl)imidazo[1,2-a]pyrazin-8-yl]amino]-2-ethylbenzamide]"
8,800,"CCc1cc(Nc2nccn3c(-c4ccc(OCc5cc[nH]n5)c(F)c4F)cnc23)ccc1C(=O)N[C@@H](C)CN (racemic) [Example 485, rac-(R)-4-((3-(4-((1H-pyrazol-3-yl)methoxy)-2,3-difluorophenyl)imidazo[1,2-a]pyrazin-8-yl)amino)-N-(1-aminopropan-2-yl)-2-ethylbenzamide]"
9,980,"CNC(=O)c1ccc(Nc2nccn3c(-c4ccc(OC(F)F)cc4)cnc23)cc1C(C)C [Example 166, 4-[[3-[4-(difluoromethoxy)phenyl]imidazo[1,2-a]pyrazin-8-yl]amino]-2-isopropyl-N-methyl-benzamide]"
10,860,"CCc1cc(Nc2nccn3c(-c4ccc(Oc5ccc(OCCCN)cn5)c(F)c4F)cnc23)ccc1C(=O)N(C)C [Example 510, 4-[[3-[4-[[5-(3-aminopropoxy)-2-pyridyl]oxy]-2,3-difluoro-phenyl]imidazo[1,2-a]pyrazin-8-yl]amino]-2-ethyl-N,N-dimethyl-benzamide; formic acid]"
11,270,"CCc1cc(Nc2nccn3c(-c4ccc(OC)c(F)c4F)cnc23)ccc1C(=O)NCCC1CCN(CCC(=O)O)CC1 [Example 301, 3-[4-[2-[[4-[[3-(2,3-difluoro-4-methoxyphenyl)imidazo[1,2-a]pyrazin-8-yl]amino]-2-ethylbenzoyl]amino]ethyl]piperidin-1-yl]propanoic acid]"
12,2100,"COc1ccc(-c2cnc3c(Nc4ccc(C(=O)NCCCN)c(CC(F)F)c4)nccn23)c(F)c1F [Example 316, N-(3-aminopropyl)-2-(2,2-difluoroethyl)-4-[[3-(2,3-difluoro-4-methoxyphenyl)imidazo[1,2-a]pyrazin-8-yl]amino]benzamide;formic acid]"
13,1100,"COc1ccc(-c2cnc3c(Nc4ccc(C(=O)N(C)CCCN)c(C)c4)nccn23)cc1 [Example 34, N-(3-aminopropyl)-4-((3-(4-methoxyphenyl)imidazo [1,2-a]pyrazin-8-yl)amino)-N,2-dimethylbenzamide hydrochloride]"
14,730,"COc1ccc(-c2cnc3c(Nc4ccc(C(=O)N(C)C)cc4)nccn23)cc1Cl [Example 180, 4-[[3-(3-chloro-4-methoxyphenyl)imidazo[1,2-a]pyrazin-8-yl]amino]-N,N-dimethylbenzamide;2,2,2-trifluoroacetic acid]"
15,100,"CCc1cc(Nc2nccn3c(-c4ccc(OC)c(F)c4F)cnc23)ccc1C(=O)NCCCCCc1nnc2ccccn12 [Example 533, N-(5-([1,2,4]triazolo[4,3-a]pyridin-3-yl)pentyl)-4-((3-(2,3-difluoro-4-methoxyphenyl)imidazo[1,2-a]pyrazin-8-yl)amino)-2-ethylbenzamide]"
16,1100,"COC(=O)[C@@H](N)CCCCNC(=O)c1ccc(Nc2nccn3c(-c4ccc(OC(F)F)cc4)cnc23)cc1C [Example 226, methyl (2S)-2-amino-6-[[4-[[3-[4-(difluoromethoxy)phenyl]im-idazo[1,2-a]pyrazin-8-yl]amino]-2-methylbenzoyl]amino]hexa-noate;hydrochloride]"
17,290,"COc1ccc(-c2cnc3c(Nc4ccc(C(=O)NCC5CCNC5)c(C)c4)nccn23)c(F)c1F (stereo not drawn) [Example 57, 4-[[3-(2,3-difluoro-4-methoxy-phenyl)imidazo[1,2-a]pyrazin-8-yl]amino]-2-methyl-N-(pyrrolidin-3-ylmethyl)benzamide]"
18,910,"CCc1cc(Nc2nccn3c(-c4ccc(Oc5ccccn5)c(F)c4F)cnc23)ccc1C(=O)NCC(=O)N1CCN[C@H](CO)C1 [Example 474, 4-[[3-[2,3-difluoro-4-(2-pyridyloxy)phenyl]imidazo [1,2-a]pyrazin-8-yl]amino]-2-ethyl-N-[2-[(3S)-3-(hydroxymethyl)piperazin-1-yl]-2-oxo-ethyl]benzamide]"
19,110,"CCc1cc(Nc2nccn3c(-c4ccc(OC)c(F)c4F)cnc23)ccc1C(=O)NC[C@@H]1CCNC1 [Example 529, (R)-4-((3-(2,3-difluoro-4-methoxyphenyl)imidazo[1,2-a]pyrazin-8-yl)amino)-2-ethyl-N-(pyrrolidin-3-ylmethyl)benzamide hydrochloride]"
20,190,"CNC(=O)c1ccc(Nc2nccn3c(-c4ccc(OC)c(Cl)c4)cnc23)cc1C [Example 27, 4-((3-(3-chloro-4-methoxyphenyl)imidazo [1,2-a]pyrazin-8-yl)amino)-N,2-dimethylbenzamide]"
21,480,"CCc1cc(Nc2nccn3c(-c4ccc(OC)c(F)c4F)cnc23)ccc1C(=O)NCC1CCCN1 (stereo not drawn) [Example 527, 4-((3-(2,3-difluoro-4-methoxyphenyl)imidazo[1,2-a]pyrazin-8-yl)amino)-2-ethyl-N-(pyrrolidin-2-ylmethyl)benzamide hydrochloride]"
22,1900,"COc1ccc(-c2cnc3c(Nc4ccc(C(=O)N(C)CC(=O)N(C)C)c(C)c4)nccn23)cc1F [Example 7, N-[2-(dimethylamino)-2-oxo-ethyl]-4-[[3-(3-fluoro-4-methoxy-phenyl)imidazo[1,2-a]pyrazin-8-yl]amino]-N,2-dimethyl-benzamide]"
23,270,"COc1ccc(-c2cnc3c(Nc4ccc(C(=O)NCCCN5CCNCC5=O)c(C)c4)nccn23)c(F)c1F [Example 69, 4-((3-(2,3-difluoro-4-methoxyphenyl)imidazo [1,2-a]pyrazin-8-yl)amino)-2-methyl-N-(3-(2-oxopiperazin-1-yl)propyl)benzamide]"
